Reference: patent publication US8536201B2, “Pesticidal arylpyrrolidines” (Bayer Intellectual Property GmbH, priority 2009, dated 2013)

Experiments:
Assay type in all cases: in vivo
Tetranychus urticae = assay: Two-spotted spider mite Tetranychus urticae spray test on kidney bean; settings: adult mites, after 7 days
Method: BIOLOGICAL TEST EXAMPLE 2
Two-Spotted Spider Mite Tetranychus urticae
50 to 100 adult mites of Tetranychus urticae were inoculated to leaves of kidney bean at two-leaf stage planted in a pot of 6 cm in diameter. After one day, test solution at the appropriate concentration was sprayed thereon in a sufficient amount using a spray gun. After the spraying, the plant pot was placed inside a greenhouse, and after 7 days, the acaricidal activity was calculated. An acaricidal activity of 100% means that all mites were killed, an acaricidal activity of 0% means that no mite was killed.

Spodoptera litura [1] = assay: Tobacco cutworm (Spodoptera litura) larvae, sweet potato leaf dip test; settings: third instar larvae, treated sweet potato leaves, after 7 days
Method: Unless not mentioned otherwise, the test solutions were prepared as follows:
Solvent: dimethyl formamide, 3 parts by weight
Emulsifier: polyoxyethylene alkyl phenyl ether, 1 part by weight
To prepare the test solution, 1 part by weight of an active compound is mixed with the above-mentioned amount of solvent containing the above-mentioned amount of emulsifier, and the mixture is diluted with water to the desired concentration.
BIOLOGICAL TEST EXAMPLE 1.1
Tobacco Cutworm (Spodoptera litura) Larvae
Leaves of sweet potato were immersed in the test solution at the appropriate concentration, and the leaves were dried in air. The leaves were then placed in a petri dish having a diameter of 9 cm, and ten Spodoptera litura at third instar larvae were released therein. The petri dishes were placed in a temperature-controlled chamber at 25° C. After 2 days and 4 days more sweet potato leaves were added. After 7 days, the number of dead larvae was counted to calculate the insecticidal activity. An insecticidal activity of 100% means that all larvae were killed, whereas an insecticidal activity of 0% means that no larva was killed. In the current test, the results of two petri dishes for each treatment were averaged.

Aulacophora femoralis = assay: Cucurbit leaf beetle (Aulacophora femoralis) cucumber leaf dip test; settings: second instar larvae, treated cucumber leaves, after 7 days
Method: BIOLOGICAL TEST EXAMPLE 3
Cucurbit Leaf Beetle (Aulacophora femoralis)
Leaves of cucumber were immersed in the test solution at the appropriate concentration, and the leaves were dried in air. The leaves were then put in a plastic cup containing sterilized black soil and five Aulacophora femoralis at second instar larvae were released in the cup. The cups were placed in a temperature-controlled chamber at 25° C. After 7 days, the number of dead larvae was counted, and thus the insecticidal activity was calculated. An insecticidal activity of 100% means that all larvae were killed, whereas an insecticidal activity of 0% means that no larva was killed.

Musca domestica = Musca domestica test; settings: for activity (mortality in %): 100 ppm, adults, sugar/compound sponge, after 2 days
Method: BIOLOGICAL TEST EXAMPLE 9
(§1) Solvent: Dimethyl Sulfoxide
To produce a suitable preparation of active compound, 10 mg of active compound are dissolved in 0.5 ml solvent, and the concentrate is diluted with water to the desired concentration. Prior to the assay, a piece of kitchen sponge is soaked with a mixture of sugar and compound solution and placed into a container. 10 adults (Musca domestica) are placed into the container and closed with a perforated lid.
After 2 days mortality in % is determined. 100% means that all the flies have been killed; 0% means that none of the flies have been killed.

Spodoptera litura [2] = assay: Tobacco cutworm (Spodoptera litura) larvae using artificial diet; settings: 20 ppm, 3rd-instar larvae
Method: BIOLOGICAL TEST EXAMPLE 1.2
Tobacco Cutworm (Spodoptera litura) Larvae Using Artificial Diet
2.3 g of artificial diet powder is put into a PET cup (7.5 cm diameter, 4 cm depth). The powder was leveled to make a layer in the bottom of the cup. 5 ml of a chemical solution is poured onto the powder and spread uniformly. The cup with treated diet powder is placed quiet to let the diet jell. Into each testing cup five 3rd-instar larvae were released. The testing cup is closed with the lid and placed in a temperature-controlled room at 25° C. and 50-60% R.H., 16L8D lighting conditions.
The mortality in % was determined according to the following criteria:
1 larva dead: 20% Efficacy
5 larvae dead: 100% Efficacy

Boophilus microplus = Boophilus microplus (dip)
Method: BIOLOGICAL TEST EXAMPLE 5
Boophilus microplus (Dip)
as §1
To produce a suitable preparation of active compound, 10 mg of active compound are dissolved in 0.5 ml solvent, and the concentrate is diluted with water to the desired concentration. Eight to ten adult engorged female Boophilus microplus ticks are placed in perforated plastic beakers and immersed in aqueous compound solution for one minute. Ticks are transferred to a filter paper in a plastic tray. Egg deposition of fertile eggs is monitored after. After 7 days mortality in % is determined. 100% means that all the ticks have been killed; 0% means that none of the ticks have been killed.

Ctenocephalides felis = Ctenocephalides felis test (CTECFE), blood feeding; settings: Ctenocephalides felis, in Bos taurus, 48 h, read-out: activity (mortality in %)
Method: BIOLOGICAL TEST EXAMPLE 7
Ctenocephalides felis—Test (CTECFE)
as §1
To produce a suitable preparation of active compound, 10 mg of active compound are dissolved in 0.5 ml solvent, and the concentrate is diluted with cattle blood to the desired concentration. Approximately 20 adult unfed (Ctenocephalides felis) are placed in flea chambers. The blood chamber, sealed with parafilm on the bottom, are filled with cattle blood supplied with compound solution and placed on top of the flea chamber, so that the fleas are able to suck the blood. The blood chamber is heated to 37° C. whereas the flea chamber is kept at room temperature.
After 2 days mortality in % is determined. 100% means that all the fleas have been killed; 0% means that none of the fleas have been killed.

Lucilia cuprina = Lucilia cuprina (48 hrs) larval test; settings: read-out: activity (larval mortality in %)
Method: BIOLOGICAL TEST EXAMPLE 8
Species: Lucilia cuprina 1st Instar Larvae (Age 24 Hrs)
as §1
10 mg active compound are dissolved in 0.5 ml dimethyl sulfoxide. Serial dilutions are made to obtain the desired rates. Approximately 20 Lucilia cuprina 1st instar larvae are transferred into a test tube containing 1 cm^3 of minced horse meat and 0.5 ml aqueous dilution of test compound.
After 2 days larval mortality in % is recorded. 100% efficacy=all larvae are killed, […].

## CCC(=O)NC(C)c1ccc(N2CCC(c3cc(C(F)(F)F)cc(C(F)(F)F)c3)(C(F)(F)F)C2)cc1 (racemic) [Compound 10]
Tetranychus urticae; 20 ppm
  insecticidal activity: 100%
Spodoptera litura [1]; 20 ppm
  insecticidal activity: 100%
Aulacophora femoralis; 20 ppm
  insecticidal activity: 100%
Musca domestica
  activity (mortality in %): 90%
Spodoptera litura [2]
  insecticidal activity: 100%

## COCCC(=O)N[C@@H](C)c1ccc(N2CCC(c3cc(C(F)(F)F)cc(C(F)(F)F)c3)(C(F)(F)F)C2)cc1 (stereo partly drawn) [Compound 15-b]
Tetranychus urticae; 20 ppm
  insecticidal activity: 100%
Boophilus microplus; 100 ppm, adult engorged females immersed one minute, after 7 days
  activity (mortality in %): 80%
Aulacophora femoralis; 100 ppm
  insecticidal activity: 100%
Spodoptera litura [2]
  insecticidal activity: 100%

## C[C@H](NC(=O)C1CC1)c1ccc(N2CCC(c3cc(C(F)(F)F)cc(C(F)(F)F)c3)(C(F)(F)F)C2)cc1 (stereo partly drawn) [Compound 11-b, N-[(1S)-1-(4-{3-[3,5-bis(trifluoromethyl)phenyl]-3-(trifluoromethyl)pyrrolidin-1-yl}phenyl)ethyl]cyclopropanecarboxamide]
Tetranychus urticae; 4 ppm
  insecticidal activity: 100%
Tetranychus urticae; 20 ppm
  insecticidal activity: 100%
Boophilus microplus; Rhipicephalus microplus, 168 h, read-out: activity (mortality in %)
  mortality at 100 ppm: 100%
Ctenocephalides felis
  mortality at 100 ppm: 100%
Spodoptera litura [1]; 0.8 ppm
  insecticidal activity: 100%
Spodoptera litura [1]; 20 ppm
  insecticidal activity: 100%
Aulacophora femoralis; 4 ppm
  insecticidal activity: 100%
Aulacophora femoralis; 20 ppm
  insecticidal activity: 100%
Musca domestica; Musca domestica, 48 h, read-out: activity (mortality in %)
  mortality at 100 ppm: 100%
Lucilia cuprina
  mortality at 100 ppm: 100%

## CC(NC(=O)C1CC1)c1ccc(N2CCC(c3cc(Cl)cc(Cl)c3)(C(F)(F)F)C2)cc1 (racemic) [Compound 3]
Tetranychus urticae; 20 ppm
  insecticidal activity: 100%
Spodoptera litura [1]; 20 ppm
  insecticidal activity: 100%
Aulacophora femoralis; 20 ppm
  insecticidal activity: 100%
Musca domestica
  activity (mortality in %): 90%
Spodoptera litura [2]
  insecticidal activity: 100%

## CC(NC(=O)C1CC1)c1ccc(N2CCC(c3cc(Cl)c(Cl)c(Cl)c3)(C(F)(F)F)C2)cc1 (racemic) [Compound 8]
Tetranychus urticae; 20 ppm
  insecticidal activity: 100%
Spodoptera litura [1]; 20 ppm
  insecticidal activity: 100%
Aulacophora femoralis; 20 ppm
  insecticidal activity: 100%
Musca domestica
  activity (mortality in %): 90%
Spodoptera litura [2]
  insecticidal activity: 100%

## CC(=O)N[C@@H](C)c1ccc(N2CCC(c3cc(C(F)(F)F)cc(C(F)(F)F)c3)(C(F)(F)F)C2)cc1 (stereo partly drawn) [Compound 9-b]
Spodoptera litura [1]; 20 ppm
  insecticidal activity: 100%
Aulacophora femoralis; 20 ppm
  insecticidal activity: 100%
Musca domestica
  activity (mortality in %): 90%
Spodoptera litura [2]
  insecticidal activity: 100%
